Results: patent publication US20190330226A1, “POSITIVE ALLOSTERIC MODULATORS OF THE MUSCARINIC ACETYLCHOLINE RECEPTOR M1” (Vanderbilt University, priority 2018, published 2019)

Molecular target: T1, human mAChR M1 (Homo sapiens, UniProt P11229)
T1 construct: host or cells: CHO-K1 (ATCC), stably transfected using Lipofectamine 2000
T1 sequence (P11229 1-460): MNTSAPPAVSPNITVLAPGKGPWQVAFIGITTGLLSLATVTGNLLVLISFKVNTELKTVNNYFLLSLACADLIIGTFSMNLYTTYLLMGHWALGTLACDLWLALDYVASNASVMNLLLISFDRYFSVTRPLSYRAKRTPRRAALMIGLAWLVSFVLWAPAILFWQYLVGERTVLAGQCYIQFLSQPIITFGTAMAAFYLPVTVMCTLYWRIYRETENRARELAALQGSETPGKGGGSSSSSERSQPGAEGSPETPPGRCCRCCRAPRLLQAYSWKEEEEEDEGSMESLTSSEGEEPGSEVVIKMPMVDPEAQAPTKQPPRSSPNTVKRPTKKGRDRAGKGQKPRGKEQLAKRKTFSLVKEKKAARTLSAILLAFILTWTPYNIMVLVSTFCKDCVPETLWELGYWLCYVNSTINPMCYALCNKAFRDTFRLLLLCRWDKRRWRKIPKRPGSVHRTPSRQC
Assay: mAChR M1 cell-based functional assay (calcium mobilization, Fluo-4, FDSS)
Settings: CHO-K1 cells stably expressing hM1, calcium flux; for Emax: PAM mode with EC20 acetylcholine; for EC50: concentration-dependent increase in the EC20 acetylcholine response
Summary of the method: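 CHO-K1 cells stably expressing hM1 loaded with Fluo-4 AM. Compound added at 4 s, acetylcholine EC20 at 144 s and EC80 at 230 s, with FDSS fluorescence ratio read at 1 Hz. Agonist, PAM (EC20 potentiation) and antagonist (EC80 decrease) activity; EC50 and Emax from four-parameter logistic fit.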

SMILES | Emax [%] | EC50 [µM]
Cn1cc(-c2cc(F)c(CN3Cc4cnn(CC5CCCO5)c4C3=O)c(F)c2)cn1 (centres unmarked) [Compound 35, 5-(2,6-difluoro-4-(1-methyl-1H-pyrazol-4-yl)benzyl)-1-((tetrahydrofuran-2-yl)methyl)-4,5-dihydropyrrolo[3,4-c]pyrazol-6(1H)-one] | 73 | 
Cn1cc2cc(-c3cc(F)c(CN4Cc5scc(Br)c5C4=O)c(F)c3)ccc2n1 [Compound 33, 3-bromo-5-(2,6-difluoro-4-(2-methyl-2H-indazol-5-yl)benzyl)-5,6-dihydro-4H-thieno[2,3-c]pyrrol-4-one] | 56 | 2.23
Cn1cc2cc(-c3ccc(CN4Cc5sccc5C4=O)c(F)c3)ccc2n1 [Compound 44, 5-(2-fluoro-4-(2-methyl-2H-indazol-5-yl)benzyl)-5,6-dihydro-4H-thieno[2,3-c]pyrrol-4-one] | 51 | 2.78
Cn1cc2cc(-c3ccc(CN4Cc5ncsc5C4=O)c(F)c3)ccc2n1 [Compound 13, 5-(2-fluoro-4-(2-methyl-2H-indazol-5-yl)benzyl)-4,5-dihydro-6H-pyrrolo[3,4-d]thiazol-6-one] | 51 | 1.85
Cn1cc2c(-c3cc(F)c(CN4Cc5nc[nH]c5C4=O)c(F)c3)cccc2n1 [Compound 3, 5-(2,6-difluoro-4-(2-methyl-2H-indazol-4-yl)benzyl)-5,6-dihydropyrrolo[3,4-d]imidazol-4(3H)-one] | 78 | 
